The text below walks through data of patent publication US20090233964A1, “METHODS FOR IMPROVING THE PHARMACOKINETICS OF HIV INTEGRASE INHIBITORS” (priority 2005, published 2009).

The nature of data set [1]: Example 5: pharmacokinetic drug-drug interaction of zidovudine and Compound 1/r. It is filed as in vivo, human. Conditions: for AUCtau, Cmax, Ctau (Compound 1 only) 90% CI of GMR (co-administration:alone): Compound 1/r 200/100 mg QD plus ZDV 300 mg BID, with a meal, bounds 70% to 143%. The text has this: Zidovudine is a NRTI used in HIV patients.
Data set [2] can be described thus: Example 1: plasma pharmacokinetics of Compound 1 alone and coadministered with RTV in healthy subjects. It is filed as in vivo, human. The settings on record: 100 mg. The text has this:
The study was an open-label, fixed-sequence, crossover, pharmacokinetic study with 12 subjects. The subjects were healthy males and non-pregnant, nonlactating females between 18 and 45 years of age, inclusive. The duration of the study was 20 days, with Period 1 of Days 1 to 10 and Period 2 of days 11 to 20. Follow-up contact was on day 27.

The conditions of data set [3]: human, in vivo. Here is the method: Safety, tolerability, pharmacokinetics, and efficacy were monitored through Day 21 after dosing. The active treatments in the 5 cohorts were as follows: […] The duration of the study was 21 days, with 10 days of treatment and 11 days of follow-up. […] Matching placebo was administered orally under fed conditions. For Cohort 5 only, 100 mg RTV capsules were coadministered orally under fed conditions. […] Pharmacokinetics: The pharmacokinetic parameters of Compound 1 in plasma and peripheral blood mononuclear cells were summarized using descriptive statistics.

Data set [4] in a line: Example 3: Compound 1 pharmacokinetics at a range of RTV doses. In kind it is in vivo, human. The settings on record: Compound 1 125 mg QD + 200 mg RTV; mean. Here is the method: (§1) The effects of a range of RTV doses (20, 50, 100, and 200 mg once daily) on hepatic cytochrome P450 3A (CYP3A) activity were also evaluated using a CYP3A substrate.
(§2) A randomized, open label, single-center, multiple-dose, two group, Phase 1 study was conducted (24 subjects (16 evaluable) subjects in two groups; 12 (8 evaluable) in each group) with an approximately even distribution of healthy male and non-pregnant, non-lactating female subjects aged between 18-45, inclusive
(§3) The population mean slope was estimated along with a corresponding 90% CI. This study was performed in compliance with the guidelines of Good Clinical Practices (GCPs).

Data set [5] in a line: Example 1: multiple-dose safety of Compound 1 alone and with RTV. It is filed as in vivo, human. Here is the method:
The single-dose and multiple-dose pharmacokinetics of Compound 1 were also determined. The multiple-dose safety of Compound 1 administered alone and with RTV was also determined. Safety: Safety was evaluated by assessment of clinical laboratory tests at baseline and at various time points during the study; periodic physical examinations, including vital signs; and documentation of adverse events throughout the study. Safety: No statistical inference was performed for safety data in this pharmacokinetic study.

Data set [6] is described as follows: Example 7: effect of food on pharmacokinetics of Compound 1 in Japanese male healthy volunteers. It is filed as in vivo, human. The settings on record: 400 mg. The method, then: Subjects in the 400 mg fasted cohort received an additional 400 mg dose with breakfast after a washout period (generally a minimum of ten days after the initial administration). The interval of ten days between the two doses was considered appropriate for eliminating any within subject carryover effects. […] Doses were administered at similar times for each subject in each treatment period. […] Plasma samples were isolated from healthy subjects administered with Compound 1. The plasma samples were extracted by solid phase extraction using Empore™ Disk Plate (C8SD), and then measured by high-performance liquid chromatography/tandem mass spectrometry (LC/MS/MS) (HPLC model 2795 separations module from Waters; mass spectrometer model API4000 from MDS SCIEX). Ionization and detection were performed with electrospray ionization and positive ion detection with multiple reaction monitoring, respectively. […] To 50 μL of plasma samples spiked with […] each of 90% acetonitrile and 20 mmol/L ammonium formate-formic acid buffer (pH 3.0)/acetonitrile (10:90, v/v), 10 μL each of internal standard solution was added. To these samples, 200 μL of 0.1% formic acid in 10% acetonitrile was added. These solutions were then mixed for 10 seconds and centrifuged at 10,000 rpm for 5 minutes at 4° C. […] Then, 10 μL of each solution was injected into the LC/MS/MS system and analyzed.

For data set [7] the following is noted: human, in vivo. The method, then:
Safety, tolerability, pharmacokinetics, and efficacy were monitored through Day 21 after dosing. The active treatments in the 5 cohorts were as follows: […] Safety: Adverse events, vital signs, electrocardiogram, ophthalmologic examination, and clinical laboratory tests were evaluated for safety. Safety: The proportion of subjects with adverse events was summarized by treatment, system organ class and preferred term for treatment-emergent adverse events, treatment-related adverse events, serious adverse events, and adverse events leading to study drug discontinuation. Adverse events were coded using the Medical Dictionary for Regulatory Activities (MedDRA®) version 8.1. […] Laboratory results were expressed on the original measurement scale and in terms of the toxicity grade. Changes from baseline in quantitative laboratory tests were summarized by visit.
The source holds these as a separate data set.

Data set [8] can be described thus: Example 7: safety of single 400 mg dose of Compound 1. In kind it is in vivo, human. Conditions: single oral dose, Japanese male healthy volunteers. The method, then:
The subjects were admitted to the medical institution in the afternoon on the day before administration (“Day −1”). […] The subjects were discharged the day after administration (“Day 2”). Thus, the subjects were hospitalized for a total of three days. Follow up assessment for safety was performed 6 to 8 days after administration (“Days 7 to 9”).

The conditions of data set [9]: in vivo. Here is the method: Pharmacokinetic (PK) blood draws were performed on days 7, 17, and 27.
Data set [10] has as its system HIV-1. Put plainly: Example 2: antiviral activity (HIV-1 RNA reduction) and exposure-response in subjects infected with HIV-1. In kind it is in vivo, human. Here is the method:
At screening, subjects were to have a plasma HIV-1 RNA load of ≧10,000 to ≦300,000 copies/mL and a CD4+ cell count of ≧200 cells/mm^3.
Safety, tolerability, pharmacokinetics, and efficacy were monitored through Day 21 after dosing. […] The placebo group in Cohort 5 also received 100 mg of RTV.
The duration of the study was 21 days, with 10 days of treatment and 11 days of follow-up. […] Matching placebo was administered orally under fed conditions. For Cohort 5 only, 100 mg RTV capsules were coadministered orally under fed conditions.
Efficacy: The primary efficacy endpoint was the maximum HIV-1 RNA reduction (log10 copies/mL) from baseline through Day 11. The maximum reduction for an individual subject was the maximum drop among changes from baseline between Days 2 and 11.
The 2 subjects who received placebo+100 mg RTV were treated as a separate group. HIV-1 RNA values below the detection limit (50 copies/mL) were entered as 49 copies/mL.

Data set [11] can be described thus: Example 4: safety of FTC/TDF and Compound 1/r. In kind it is in vivo, human. Conditions: Compound 1/r and their co-administration.
In data set [12] the test system is hepatic cytochrome P450 3A (CYP3A) activity. Put plainly: Example 3: IV midazolam (MDZ) pharmacokinetics as probe for CYP3A activity at a range of RTV doses. The settings on record: for AUCinf: MDZ 1 mg IV, mean. Here is the method: as §1, §2
For MDZ: AUC0-last, AUCinf, % AUCexp, Clast, Tlast, λz, T1/2, CL and Vz.
as §3

The nature of data set [13]: Example 3: RTV pharmacokinetics when dosed with Compound 1. In kind it is in vivo, human. Conditions: RTV 100 mg QD with Compound 1; mean (CV %). Here is the method: as §1, §2, §3
Where [14] appears, read: after administration of Compound 1+RTV.

Like-named read-outs stand apart in the source and are kept apart here.

The term AUC denotes concentration integrated over time. As to `COc1cc2c(cc1Cc1cccc(Cl)c1F)c(=O)c(C(=O)O)cn2[C@H](CO)C(C)C` [Compound 1, 6-(3-chloro-2-fluorobenzyl)-1-[(2S)-1-hydroxy-3-methylbutan-2-yl]-7-methoxy-4-oxo-1,4-dihydroquinoline-3-carboxylic acid], the Half-life result in data set [1] (human, in vivo) is given as “supporting once daily dosing”. For the same molecule, the “mean steady-state systemic exposure (AUCtau, Day 10) lower compared with mean exposure (AUCinf) after a single dose (Day 1)” value in data set [2] (Compound 1 alone, indicating autoinduction) is given as “approximately 20%”. Moreover, in data set [2] (both sexes, human, plasma, po), the AUC turned out to be 908 ng·h/mL. Besides, the enhancement of exposure in data set [3] was in the range of 10 to 16 fold. Moreover, the AUCtau in [4] came to 20600 ng·h/mL. The serious adverse events result in data set [5] (Compound 1 alone and Compound 1+RTV, whole study) is reported as “No serious adverse events occurred”. In addition, in data set [5] (setting [14]), the “subjects with treatment-emergent AEs considered related to study drugs” value is given as 5 of 12 subjects; the “treatment-related AEs reported in more than one subject” value is “nausea (three subjects), vomiting (two subjects), headache (two subjects), and pruritus (two subjects)”. In addition, in [5] (after administration of Compound 1 alone), the “subjects with treatment-emergent AEs considered related to study drugs” value is listed as 2 of 12 subjects. Besides, in [5] (concurrent oral Compound 1 100 mg twice daily and RTV 100 mg twice daily for up to 10 days), the tolerability entry was “generally well-tolerated”. Moreover, the “subjects experiencing nausea (most frequent treatment-emergent AE)” value in [5] (during administration of Compound 1+RTV) came out at 4 subjects. The “subjects with treatment-emergent adverse events” value in [5] (during administration of Compound 1+RTV, each 100 mg twice daily) is recorded as 7 of 12 subjects. Further, the “subjects with treatment-emergent adverse events” value in [5] (during administration of Compound 1 alone, 100 mg twice daily) is 4 of 12 subjects. In [5] (oral Compound 1 100 mg twice daily for up to 20 days), the tolerability result is recorded as “well tolerated”. For the same molecule, in data set [6], the “AUC0-inf higher in the fed state compared to the fasted state” value worked out at 2.69 fold and the “Cmax higher in the fed state compared to the fasted state” value was 3.30 fold. Further, in data set [7], the “changes in hematology and urinalysis findings, vital signs, body weight, electrocardiogram and ophthalmic examinations” value is listed as “No clinically relevant changes”; the “dose interruptions, discontinuations, or serious adverse events” value is on record as “no dose interruptions, discontinuations, or serious adverse events”; the tolerability result was “generally well tolerated”. Besides, in data set [8], the “electrocardiogram (ECG) changes” value is given as “No clinically significant electrocardiogram (ECG) changes were noted”; the safety and tolerability result was “safe and well tolerated with no serious adverse events”. Besides, in data set [9], the “PK (Cmax, AUCtau, Ctau) during co-administration versus alone” value is recorded as “unaffected”. For the same molecule, the “Emax (reduction from baseline, simple Emax model)” value in data set [10] (Compound 1 Ctau versus HIV-1 RNA reduction) was determined as 2.32 log10 copies/mL. In [10] (all dose levels, 10 consecutive days), the “HIV-1 RNA levels compared with placebo” value was “significantly reduced HIV-1 RNA levels”. In addition, the “serious adverse events or discontinuations due to AEs” value in [11] is “no serious adverse events”.
On to `Cc1cn([C@H]2C[C@H](N=[N+]=[N-])[C@@H](CO[C@@H]3O[C@H](C(=O)O)[C@@H](O)[C@H](O)[C@H]3O)O2)c(=O)[nH]c1=O` [G-ZDV], for which the “AUCtau, Cmax, Ctau (Compound 1 only) 90% CI of GMR (co-administration:alone)” value in data set [1] was “within predefined PK equivalence bounds”.
Regarding `Cc1ncc2n1-c1ccc(Cl)cc1C(c1ccccc1F)=NC2` [MDZ, midazolam], the AUCinf worked out at 101 ng·h/mL in data set [12] (+20 mg RTV QD with Compound 1 125 mg); 145 ng·h/mL in data set [12] (+50 mg RTV QD with Compound 1 125 mg); 219 ng·h/mL in data set [12] (+100 mg RTV QD with Compound 1 125 mg); 146 ng·h/mL in data set [12] (+200 mg RTV QD with Compound 1 125 mg); 31.0 ng·h/mL in data set [12] (MDZ alone (Day 1)). The CL is 2.38 mL/min/kg in data set [12] (MDZ +20 mg RTV); 1.5 mL/min/kg in data set [12] (MDZ +50 mg RTV); 1.2 mL/min/kg in [12] (MDZ +100 mg RTV); 1.45 mL/min/kg in data set [12] (MDZ +200 mg RTV); 7.45 mL/min/kg in data set [12] (MDZ alone). Moreover, the Clast in data set [12] (MDZ +20 mg RTV) was 1.53 ng/mL; in [12] (MDZ +50 mg RTV) it was 2.51 ng/mL; in data set [12] (MDZ +100 mg RTV), 3.34 ng/mL; in data set [12] (MDZ +200 mg RTV) it was 2.58 ng/mL; in data set [12] (MDZ alone) it was 0.20 ng/mL. Further, the Half-life in data set [12] (MDZ +20 mg RTV) was 7.83 h; in data set [12] (MDZ +50 mg RTV) it was 14.4 h; in data set [12] (MDZ +100 mg RTV), 22.4 h; in data set [12] (MDZ +200 mg RTV) it was 15.2 h; in [12] (MDZ alone), 3.97 h.
Consider `CC(C)c1nc(CN(C)C(=O)N[C@H](C(=O)N[C@@H](Cc2ccccc2)C[C@H](O)[C@H](Cc2ccccc2)NC(=O)OCc2cncs2)C(C)C)cs1` [Ritonavir, (2S,3S,5S)-5-(N—(N—((N-Methyl-N-((2-isopropyl-4-thiazolyl)methyl)amino)-carbonyl)-L-valinyl)amino)-2-(N-((5-thiazolyl)methoxycarbonyl)amino)-1,6-diphenyl-3-hydroxyhexane], for which the Half-life in data set [13] is recorded as 6.34 (18.4) hr.
`Cc1cn([C@H]2C[C@H](N=[N+]=[N-])[C@@H](CO)O2)c(=O)[nH]c1=O` [ZDV, zidovudine, reference compound]: in data set [1], the “AUCtau, Cmax, Ctau (Compound 1 only) 90% CI of GMR (co-administration:alone)” value is reported as “within predefined PK equivalence bounds”.
